In PMC12440207 (PLOS Pathogens, 2025):
pEC50: −log10 of the molar value. Entries after “also recorded” stand apart in the source; their conditions may differ.

Legend:
[1] = system: water injected oocytes (endogenous channels of Xenopus laevis); experiment: Electrophysiology of water injected oocytes (control); type: cell-based
Description: (§1) TEVC was conducted at room temperature by impaling oocytes with two microelectrodes; a current injecting electrode, Im, used to inject the required current for holding the membrane at a set voltage, and a voltage sensing electrode, Vm. The microelectrodes were pulled using a Flaming/Brown horizontal electrode puller (Model P-97; Sutter Instruments, Novato, CA, USA) and filled with 3 M KCl. Each electrode tip was broken with a piece of Kimwipe paper (Kimtech Science, Fisher) to achieve a resistance of 2 – 5 MΏ in recording solution (88 mM NaCl, 2.5 mM KCl, 1 mM MgCl2.6H2O, 1.8 mM CaCl2.2H2O and 5 mM HEPES, at pH 7.4). […] Amplified signals were converted from analog to digital format by a Digidata 1322A digitizer (Molecular Devices, CA, USA) and all data were acquired on a desktop computer with the Clampex 10.3 data acquisition software (Molecular Devices, Sunnyvale, CA, USA).
(§2) Briefly, oocytes expressing either Bma-SLO-1F or Ovo-SLO-1A channels were impaled and subjected to a current-voltage protocol that consisted of 500 ms voltage steps from -120 to + 60 mV in 20 mV increments, starting from a holding position of -70 mV for 1 s between each step. Plateau currents were recorded at a frequency of 5000 Hz during clamping and perfused with recording solution: (88 mM NaCl, 2.5 mM, KCl, 1 mM MgCl2.6H2O, 1.8 mM CaCl2.2H2O and 5 mM HEPES, at pH 7.4). The results of the voltage steps were evaluated and analyzed using the ClampFit 10.3 software (Molecular Devices), whereas current-voltage curves (IVCs) were prepared using Graphpad Prism 10.1.1(GraphPad Software, Inc., USA).
(§3) To obtain current-voltage curves (IVCs) from our voltage steps experiments, plateau currents elicited at each step potential (-120 to + 60 mV) were acquired for individual oocytes in Clampfit 10.3 (Molecular Devices, Sunnyvale, CA, USA). […] Subsequently, statistical differences for slope values among treatment groups were analyzed using ANOVA, followed by the Tukey multiple comparison post-hoc test. Results were expressed as mean ± S.E.M.

Ovo-SLO-1A [2] = target: T1, Ovo-SLO-1A (Onchocerca volvulus, UniProt A0A2K6W0E9); experiment: Two-electrode voltage clamp of Xenopus oocytes expressing Ovo-SLO-1A; type: cell-based
T1 sequence (A0A2K6W0E9 entry or part of it): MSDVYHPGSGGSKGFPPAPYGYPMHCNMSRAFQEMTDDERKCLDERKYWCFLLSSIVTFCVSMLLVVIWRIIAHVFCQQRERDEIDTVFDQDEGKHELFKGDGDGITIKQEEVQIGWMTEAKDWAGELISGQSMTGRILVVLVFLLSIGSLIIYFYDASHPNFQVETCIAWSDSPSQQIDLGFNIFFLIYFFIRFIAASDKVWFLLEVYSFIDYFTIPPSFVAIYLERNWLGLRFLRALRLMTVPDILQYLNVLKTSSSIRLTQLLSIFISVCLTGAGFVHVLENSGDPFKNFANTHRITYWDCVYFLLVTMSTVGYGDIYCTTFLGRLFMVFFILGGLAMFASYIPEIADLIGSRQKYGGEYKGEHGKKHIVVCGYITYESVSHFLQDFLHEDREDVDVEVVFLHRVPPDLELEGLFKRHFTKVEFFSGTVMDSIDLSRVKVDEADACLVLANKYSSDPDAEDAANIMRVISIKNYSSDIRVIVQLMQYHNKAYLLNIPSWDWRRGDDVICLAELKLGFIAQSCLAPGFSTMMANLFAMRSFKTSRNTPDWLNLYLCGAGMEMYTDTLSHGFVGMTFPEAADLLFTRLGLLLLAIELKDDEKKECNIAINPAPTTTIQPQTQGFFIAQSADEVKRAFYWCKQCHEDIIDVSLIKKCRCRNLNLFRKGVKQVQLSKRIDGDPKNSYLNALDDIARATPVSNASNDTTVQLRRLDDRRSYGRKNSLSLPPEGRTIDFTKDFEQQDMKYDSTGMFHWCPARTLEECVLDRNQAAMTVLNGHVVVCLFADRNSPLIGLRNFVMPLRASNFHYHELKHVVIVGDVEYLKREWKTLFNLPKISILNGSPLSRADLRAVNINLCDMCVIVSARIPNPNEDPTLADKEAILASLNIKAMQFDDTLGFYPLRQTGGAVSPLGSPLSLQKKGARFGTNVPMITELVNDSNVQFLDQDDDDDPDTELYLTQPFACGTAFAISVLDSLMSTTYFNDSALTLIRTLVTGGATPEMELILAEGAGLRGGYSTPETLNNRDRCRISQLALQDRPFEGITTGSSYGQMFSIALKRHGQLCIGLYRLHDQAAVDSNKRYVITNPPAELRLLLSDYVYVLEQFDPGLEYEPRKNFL
Description: (§4) Defolliculated Xenopus laevis oocytes were purchased from Ecocyte Bioscience (Austin, TX, USA) and Xenopus 1 Corp (Dexter, MI, USA). Heterologous expression of the Bma-SLO-1F receptor was achieved by injecting 15 ng of cRNA in a total volume of 50 nL in nuclease-free water. Each oocyte was microinjected into the cytoplasm of the animal pole region using a Drummond Nanoject II microinjector (Drummond Scientific, Broomall, PA, USA). After injection, oocytes were incubated at 17°C in a sterile 96-well culture plate containing 300 μl of incubation solution (100 mM NaCl, 2 mM KCl, 1.8 mM CaCl2.2H2O, 1 mM MgCl2.6H2O, 5 mM HEPES, 2.5 mM Na pyruvate, 100 U/mL penicillin and 100 μg/mL streptomycin, pH 7.5) in each well. Incubation solution was changed daily during the period of incubation. The same procedure was also conducted for the Ovo-SLO-1A receptor. Experiments were performed on oocytes within 5 – 6 days post injection.
as §1
(§5) For our recordings, the times for drug applications were selected to allow the currents recorded to reach a stable plateau. At the beginning of experiments the Xenopus oocytes were perfused with drug free recording solution for 1 min, to obtain stable initial resting currents. […] Washing of the Xenopus oocytes then followed for 3 mins.
(§6) GraphPad Prism 10.1.1 software (GraphPad Software Inc., USA) was used to generate Concentration-response curves using the log agonist vs. response equation (variable slope) to estimate EC50, Rmax and Hillslope (nH) values for both Bma-SLO-1F and Ovo-SLO-1A channels. We also used the unpaired two-tailed Student’s t-test to test for statistical significance. A p value < 0.05 was deemed significant. The analyzed results were expressed as mean ± S.E.M.
(§7) The results were expressed as the mean ± S.E.M.
(§8) Results were expressed as the mean ± S.E.M.

Bma-SLO-1F [3] = target: T2, Bma-SLO-1F (Brugia malayi, UniProt A0A0J9Y9H3); experiment: Two-electrode voltage clamp of Xenopus oocytes expressing Bma-SLO-1F; type: cell-based
T2 sequence (A0A0J9Y9H3 entry or part of it): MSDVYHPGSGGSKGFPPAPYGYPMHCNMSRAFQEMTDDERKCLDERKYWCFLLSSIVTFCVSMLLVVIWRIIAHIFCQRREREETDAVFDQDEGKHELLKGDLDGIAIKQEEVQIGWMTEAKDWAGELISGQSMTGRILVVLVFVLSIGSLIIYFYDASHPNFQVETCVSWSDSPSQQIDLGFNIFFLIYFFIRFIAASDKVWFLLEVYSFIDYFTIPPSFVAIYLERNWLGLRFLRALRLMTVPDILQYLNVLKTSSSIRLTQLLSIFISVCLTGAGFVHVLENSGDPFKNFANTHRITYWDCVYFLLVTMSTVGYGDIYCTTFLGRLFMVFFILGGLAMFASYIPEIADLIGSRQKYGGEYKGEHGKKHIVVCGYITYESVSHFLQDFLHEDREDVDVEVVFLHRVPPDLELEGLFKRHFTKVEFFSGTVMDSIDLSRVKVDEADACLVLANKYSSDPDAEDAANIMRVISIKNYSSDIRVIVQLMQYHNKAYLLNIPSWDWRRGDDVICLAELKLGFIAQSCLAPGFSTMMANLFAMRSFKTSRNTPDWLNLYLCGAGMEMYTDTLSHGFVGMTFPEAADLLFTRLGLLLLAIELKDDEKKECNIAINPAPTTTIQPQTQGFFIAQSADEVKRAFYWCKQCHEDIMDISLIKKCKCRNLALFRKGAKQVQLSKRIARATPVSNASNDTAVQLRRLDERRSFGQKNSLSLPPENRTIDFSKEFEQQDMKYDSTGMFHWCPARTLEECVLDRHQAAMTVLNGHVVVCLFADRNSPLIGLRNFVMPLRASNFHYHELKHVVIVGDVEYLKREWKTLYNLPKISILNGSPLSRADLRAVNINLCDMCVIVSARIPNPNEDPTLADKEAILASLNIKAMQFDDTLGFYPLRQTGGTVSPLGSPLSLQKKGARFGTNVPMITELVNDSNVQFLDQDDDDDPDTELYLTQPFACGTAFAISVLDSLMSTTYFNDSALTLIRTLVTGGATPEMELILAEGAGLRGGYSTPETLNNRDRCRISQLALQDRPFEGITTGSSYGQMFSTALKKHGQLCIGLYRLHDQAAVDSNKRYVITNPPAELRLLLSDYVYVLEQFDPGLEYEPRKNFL
Description: as §4, §1, §5, §6, §7, §8

Ovo-SLO-1A [4] = target: T1, Ovo-SLO-1A; experiment: Voltage step electrophysiology (current-voltage relationship), Ovo-SLO-1A oocytes; type: cell-based; conditions: 1 µM emodepside
Description: as §2
as §3, with “USA). Mean currents for all replicate oocytes were plotted against their corresponding voltage step potentials to obtain IVCs using Graphpad Prism 10.1.1 software (GraphPad Software, Inc., USA).” for “USA).”

Bma-SLO-1F [5] = target: T2, Bma-SLO-1F; experiment: Voltage step electrophysiology (current-voltage relationship), Bma-SLO-1F oocytes; type: cell-based
Description: as §2
as §3, with “USA). Mean currents for all replicate oocytes were plotted against their corresponding voltage step potentials to obtain IVCs using Graphpad Prism 10.1.1 software (GraphPad Software, Inc., USA).” for “USA).”

mammalian BK channel = system: mammalian BK channel; set-up: method as in PMID 24561672; conditions: mammalian BK channel activator; cited from earlier work
[6] = 0.3 µM emodepside + 3 µM GoSlo-SR-5-69 co-applied, n = 6
[7] = absence of GoSlo-SR-5-69, modulation experiment, n = 6
[8] = emodepside alone, +20 mV, n = 10
[9] = emodepside concentration-response, n = 10
[10] = in the presence of 3 µM GoSlo-SR-5-69, n = 6
[11] = 3 µM GoSlo-SR-5-69 + 0.3 µM emodepside, Ca2+ replaced with equimolar Co2+
[12] = 3 µM GoSlo-SR-5-69 alone, +20 mV
[13] = 3 µM GoSlo-SR-5-69 on 0.3 µM emodepside response

emodepside
response of water injected oocytes ([1]; 0.3 µM emodepside, +20 mV): no response
effect on current and conductance of water injected oocytes ([1]; 1 µM emodepside, voltage steps): little or no agonist effects; also recorded: no detectable change
current response (Ovo-SLO-1A [2]; [6]): 6735 ± 272 nA
current response (Ovo-SLO-1A [2]; 0.3 µM emodepside alone, n = 6): 4170 ± 355 nA
sensitivity of Ovo-SLO-1A to emodepside relative to Bma-SLO-1F (EC50 ratio) (Ovo-SLO-1A [2]; Ovo-SLO-1A vs Bma-SLO-1F): 3.5 times
Rmax of emodepside (Ovo-SLO-1A [2]; [7]): 2454 ± 87 nA
maximum response (Rmax) (Ovo-SLO-1A [2]; [8]): 10762 ± 478 nA
Hillslope (Ovo-SLO-1A [2]; [9]): 1.2 ± 0.1
Rmax of emodepside (Ovo-SLO-1A [2]; [10]): 4928 ± 830 nA
current (Imax) response (Bma-SLO-1F [3]; [6]): 2799 ± 100 nA
current (Imax) response (Bma-SLO-1F [3]; 0.3 µM emodepside alone, n = 6): 954 ± 355 nA
Rmax of emodepside (Bma-SLO-1F [3]; [7]): 2679 ± 318 nA
maximum response (Rmax) (Bma-SLO-1F [3]; [8]): 6446 ± 287 nA
Hillslope (Bma-SLO-1F [3]; [9]): 1.1 ± 0.1
Rmax of emodepside (Bma-SLO-1F [3]; [10]): 4493 ± 433 nA
reversal potential (Ovo-SLO-1A [4]; no change from basal): -71 mV
slope conductance (Ovo-SLO-1A [4]; voltage steps -120 to +60 mV, n = 6 (basal 26 ± 2.9 µS)): 61 ± 4.4 µS
slope conductance (Bma-SLO-1F [5]; 1 µM emodepside, voltage steps -120 to +60 mV, n = 6 (basal 2.4 ± 0.3 µS)): 12 ± 1.0 µS
reversal potential (Bma-SLO-1F [5]; all current voltage plots, with and without 1 µM emodepside): ~-72 mV

Nc1c(S(=O)(=O)O)cc(Nc2ccc3c(c2)CCCC3)c2c1C(=O)c1ccccc1C2=O [GoSlo-SR-5–69]
current produced in water injected oocytes ([1]; 3 µM GoSlo-SR-5-69, +20 mV, also seen in SLO-1 expressing oocytes): slowly inactivating inward current
pEC50 (mammalian BK channel): 6.60
change in emodepside Rmax (Ovo-SLO-1A [2]; 3 µM GoSlo-SR-5-69): significantly increased
shift in emodepside EC50 (Ovo-SLO-1A [2]; 3 µM GoSlo-SR-5-69): did not cause a significant shift; also recorded: remained unchanged
potentiation of emodepside responses in the absence of extracellular Ca2+ (Ovo-SLO-1A [2]; [11]): still potentiated
agonist activity (channel activation) alone (Ovo-SLO-1A [2]; [12]): lacks agonist activity; also recorded: does not by itself activate
percentage increase in peak currents of the emodepside response (Ovo-SLO-1A [2]; [13]): 65.2%
increase in emodepside Rmax (Bma-SLO-1F [3]; 3 µM GoSlo-SR-5-69): 1.7 fold
increase in sensitivity to emodepside (EC50 shift) (Bma-SLO-1F [3]; 3 µM GoSlo-SR-5-69): 7 fold
potentiation of emodepside responses in the absence of extracellular Ca2+ (Bma-SLO-1F [3]; [11]): still potentiated
agonist activity (channel activation) alone (Bma-SLO-1F [3]; [12]): lacks agonist activity; also recorded: does not by itself activate
percentage increase in peak currents of the emodepside response (Bma-SLO-1F [3]; [13]): 200%
